Where two headings read alike, the source gives them in different places.
Key:
[1] = test system: P. falciparum female gametocytes; test: P. falciparum Dual Gamete Formation Assay (PfDGFA), female readout (Pfs25-positive female gametes); format: cell-based, Plasmodium falciparum NF54; details: for Selectivity ratio F: HepG2 Tox50 versus female IC50; for IC50: PfDGFA, 24 h incubation with gametocytes before induction, female gamete readout, read-out: Female IC50; for HitlevelF: number of replicates with >50% inhibition in the female readout
How it was run: (§1)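 Mature NF54 gametocytes (day 14) were incubated with compound for 24 h at 37°C under 1% O2/3% CO2, then triggered with xanthurenic acid ookinete medium plus Cy3-anti-Pfs25. Exflagellation was imaged by brightfield; after a further 24 h at 28°C, Pfs25-positive female gametes were imaged by fluorescence and counted by automated image analysis.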

[2] = test system: P. falciparum male gametocytes; test: P. falciparum Dual Gamete Formation Assay (PfDGFA), male readout (exflagellation); format: cell-based, Plasmodium falciparum NF54; details: for Selectivity Ratio M: HepG2 Tox50 versus male IC50; for IC50: PfDGFA, 24 h incubation with gametocytes before induction, exflagellation readout, read-out: Male IC50; for HitlevelM: number of replicates with >50% inhibition in the male readout
How it was run: as §1

[3] = test system: HepG2 cells; test: HepG2 cytotoxicity counter-screen; details: cytotoxic activity against HepG2 cells
[4] = PfDGFA at 2µM, 24h preincubation with gametocytes, average of replicates
[5] = PfDGFA at 2µM, 24h preincubation with gametocytes, replicate R1
[6] = PfDGFA at 2µM, 24h preincubation with gametocytes, replicate R3
[7] = PfDGFA at 2µM, 24h preincubation with gametocytes, replicate R4
[8] = 2µM, 24h preincubation with gametocytes prior to induction of gametogenesis, average of replicates
[9] = 2µM, 24h preincubation with gametocytes prior to induction of gametogenesis, replicate R1
[10] = 2µM, 24h preincubation with gametocytes prior to induction of gametogenesis, replicate R3
[11] = 2µM, 24h preincubation with gametocytes prior to induction of gametogenesis, replicate R4
[12] = 2µM, 24h preincubation with gametocytes, average of replicates
[13] = 2µM, 24h preincubation with gametocytes, replicate R1
[14] = 2µM, 24h preincubation with gametocytes, replicate R3
[15] = 2µM, 24h preincubation with gametocytes, replicate R4
[16] = Plasmodium falciparum, 2µM, 24h preincubation with gametocytes, average of replicates, read-out: Average inhibition female (%)
[17] = Plasmodium falciparum, 2µM, 24h preincubation with gametocytes, replicate R1, read-out: % inhibition female (individual replicates) R1
[18] = Plasmodium falciparum, 2µM, 24h preincubation with gametocytes, replicate R2, read-out: % inhibition female (individual replicates) R2
[19] = Plasmodium falciparum, 2µM, 24h preincubation with gametocytes, replicate R3, read-out: % inhibition female (individual replicates) R3
[20] = Plasmodium falciparum, 2µM, 24h preincubation with gametocytes, replicate R4, read-out: % inhibition female (individual replicates) R4
[21] = Plasmodium falciparum, 2µM, 24h preincubation with gametocytes, average of replicates, read-out: Average inhibition male (%)
[22] = Plasmodium falciparum, 2µM, 24h preincubation with gametocytes, replicate R1, read-out: % inhibition male (individual replicates) R1
[23] = Plasmodium falciparum, 2µM, 24h preincubation with gametocytes, replicate R2, read-out: % inhibition male (individual replicates) R2
[24] = Plasmodium falciparum, 2µM, 24h preincubation with gametocytes, replicate R3, read-out: % inhibition male (individual replicates) R3
[25] = Plasmodium falciparum, 2µM, 24h preincubation with gametocytes, replicate R4, read-out: % inhibition male (individual replicates) R4

| Compound | IC50 [1] | IC50 [2] | Selectivity ratio F [1] | Average inhibition female (%) [1, 4] | % inhibition female (individual replicates) R1 [1, 5] | % inhibition female (individual replicates) R3 [1, 6] | % inhibition female (individual replicates) R4 [1, 7] | HitlevelF ([1]; 2µM) | Selectivity Ratio M [2] | Average inhibition male (%) [2, 4] | % inhibition male (individual replicates) R1 [2, 5] | % inhibition male (individual replicates) R3 [2, 6] | % inhibition male (individual replicates) R4 [2, 7] | HitlevelM ([2]; 2µM) | Tox50 [3] | other results |
| --- | --- | --- | --- | --- | --- | --- | --- | --- | --- | --- | --- | --- | --- | --- | --- | --- |
| CC(C)Oc1ccc2ccccc2c1CNCCCCCCNCc1c(OC(C)C)ccc2ccccc12.CS(=O)(=O)O [TCMDC-137965] | 2560 nM | 1690 nM | 1.26 | 48.8% | 46.4% | 51.5% | 48.5% | 1 | 1.91 | 73.8% | 86.0% | 74.0% | 91.3% | 3 | 3.22 µM | – |
| CCCOc1ccc2ccccc2c1CNCCCCCCNCc1c(OCCC)ccc2ccccc12.CS(=O)(=O)O [TCMDC-137966] | 2860 nM | 1940 nM | 1.2 | 25.2% | 28.6% | 7.7% | 20.1% | 0 | 1.77 | 79.0% | 79.2% | 56.4% | 86.2% | 4 | 3.43 µM | – |
| CCOc1cc(OCC)c2ccccc2c1CNCCCCCCNCc1c(OCC)cc(OCC)c2ccccc12.CS(=O)(=O)O [TCMDC-137982] | 1700 nM | 1060 nM | 1.67 | – | – | – | – | – | 2.69 | – | – | – | – | – | 2.84 µM | Average inhibition female (%) [1, 12]: 82.9%; % inhibition female (individual replicates) R1 [1, 13]: 76.1%; % inhibition female (individual replicates) R3 [1, 14]: 92.8%; % inhibition female (individual replicates) R4 [1, 15]: 83.8%; Average inhibition male (%) [2, 12]: 97.2%; % inhibition male (individual replicates) R1 [2, 13]: 95.9%; % inhibition male (individual replicates) R3 [2, 14]: 96.2%; % inhibition male (individual replicates) R4 [2, 15]: 100.2% |
| CC(C)(C)c1ccc(-c2nc3c(ccc4nc(N)nc(N)c43)[nH]2)cc1.Cl [TCMDC-137984] | – | – | 3.35 | – | – | – | – | – | 17.94 | – | – | – | – | – | 3.25 µM | inhibition at 2 µM [1, 16]: 42.3%; inhibition at 2 µM [1, 17]: 35.1%; inhibition at 2 µM [1, 18]: 50%; inhibition at 2 µM [1, 19]: 42.4%; inhibition at 2 µM [1, 20]: 41.7%; IC50 ([1]; Plasmodium falciparum): 970 nM; inhibition at 2 µM [2, 21]: 99.4%; inhibition at 2 µM [2, 22]: 99.9%; inhibition at 2 µM [2, 23]: 99.6%; inhibition at 2 µM [2, 24]: 98%; inhibition at 2 µM [2, 25]: 100%; IC50 ([2]; Plasmodium falciparum): 180 nM |
| CCCCCCCCN1CCN(CCCCCCNc2c3ccccc3nc3ccccc23)CC1.Cl [TCMDC-138015] | 1910 nM | 1760 nM | 2.15 | 83.0% | 79.8% | 90.0% | 82.3% | 4 | 2.34 | 63.5% | 58.8% | 66.4% | 81.8% | 3 | 4.12 µM | – |
| Cc1ccc(S(=O)(=O)N(CCCNCc2cccc(O)c2)c2ccccc2)cc1 [TCMDC-138022] | – | – | 4.12 | – | – | – | – | – | 100.82 | – | – | – | – | – | 31.57 µM | inhibition at 2 µM [1, 16]: 63.8%; inhibition at 2 µM [1, 17]: 52.6%; inhibition at 2 µM [1, 18]: 60%; inhibition at 2 µM [1, 19]: 91.9%; inhibition at 2 µM [1, 20]: 50.6%; IC50 ([1]; Plasmodium falciparum): 7660 nM; inhibition at 2 µM [2, 21]: 98.1%; inhibition at 2 µM [2, 22]: 102%; inhibition at 2 µM [2, 23]: 101%; inhibition at 2 µM [2, 24]: 97.3%; inhibition at 2 µM [2, 25]: 91.8%; IC50 ([2]; Plasmodium falciparum): 310 nM |
| CCN(CC)CC(O)CNc1c2ccc([N+](=O)[O-])cc2nc2cc(OC)c(OC)cc12.Cl (centres unmarked) [TCMDC-138079] | 3070 nM | 420 nM | 0.86 | – | – | – | – | – | 6.3 | – | – | – | – | – | 2.63 µM | Average inhibition female (%) [1, 12]: 25.5%; % inhibition female (individual replicates) R1 [1, 13]: 28.2%; % inhibition female (individual replicates) R3 [1, 14]: 21.9%; % inhibition female (individual replicates) R4 [1, 15]: 25.2%; Average inhibition male (%) [2, 12]: 95.0%; % inhibition male (individual replicates) R1 [2, 13]: 93.0%; % inhibition male (individual replicates) R4 [2, 15]: 92.3% |
| COc1cc2nc(NCc3cccc(CNC(=O)c4ccc(-c5ccc(C(C)=O)cc5)cc4)c3)nc(N)c2cc1OC.O=C(O)C(F)(F)F [TCMDC-138177] | 2020 nM | 1630 nM | 3.13 | 43.1% | 31.2% | 17.8% | 57.2% | 2 | 3.88 | 65.2% | 54.7% | 22.4% | 95.6% | 3 | 6.34 µM | – |

Continued, in another order:

| IC50 [1] | IC50 [2] | Compound | Selectivity ratio F [1] | Average inhibition female (%) [1, 4] | % inhibition female (individual replicates) R1 [1, 5] | % inhibition female (individual replicates) R3 [1, 6] | % inhibition female (individual replicates) R4 [1, 7] | HitlevelF ([1]; 2µM) | Selectivity Ratio M [2] | Average inhibition male (%) [2, 4] | % inhibition male (individual replicates) R1 [2, 5] | % inhibition male (individual replicates) R3 [2, 6] | % inhibition male (individual replicates) R4 [2, 7] | HitlevelM ([2]; 2µM) | Tox50 [3] | other results |
| --- | --- | --- | --- | --- | --- | --- | --- | --- | --- | --- | --- | --- | --- | --- | --- | --- |
| 3030 nM | 1720 nM | COc1ccccc1-c1nc2c(ccc3nc(N)nc(N)c32)[nH]1 [TCMDC-137976] | 0.68 | 41.0% | 50.1% | 49.2% | 39.4% | 1 | 1.2 | 63.5% | 72.4% | 76.7% | 81.8% | 3 | 2.07 µM | – |
| 1000 nM | 1660 nM | CCOCn1c(-c2ccccc2)cc2c3c(N)nc(N)nc3ccc21 [TCMDC-137979] | 1.17 | – | – | – | – | – | 0.71 | – | – | – | – | – | 1.17 µM | Average inhibition female (%) [1, 8]: 82.0%; % inhibition female (individual replicates) R1 [1, 9]: 76.5%; % inhibition female (individual replicates) R3 [1, 10]: 82.3%; % inhibition female (individual replicates) R4 [1, 11]: 83.9%; HitlevelF ([1]; 2µM, 24h preincubation): 4; Average inhibition male (%) [2, 8]: 42.1%; % inhibition male (individual replicates) R1 [2, 9]: 55.5%; % inhibition male (individual replicates) R3 [2, 10]: 46.9%; % inhibition male (individual replicates) R4 [2, 11]: 49.0%; HitlevelM ([2]; 2µM, 24h preincubation): 1 |
| 3300 nM | 1880 nM | Cn1c(-c2ccccc2)cc2c3c(N)nc(N)nc3ccc21 [TCMDC-137985] | 1.39 | 1.3% | 15.4% | -11.7% | 3.6% | 0 | 2.45 | 67.4% | 74.3% | 56.6% | 64.0% | 4 | 4.6 µM | – |
| 1560 nM | 680 nM | CCOC(=O)c1cc2c(CCN3C(=O)c4ccccc4C3=O)cn(C)c2cc1-c1ccncc1 [TCMDC-138099] | 1 | – | – | – | – | – | 2.3 | – | – | – | – | – | 1.57 µM | Average inhibition female (%) [1, 12]: 93.8%; % inhibition female (individual replicates) R1 [1, 13]: 94.3%; % inhibition female (individual replicates) R3 [1, 14]: 100.9%; % inhibition female (individual replicates) R4 [1, 15]: 92.0%; Average inhibition male (%) [2, 12]: 101.6%; % inhibition male (individual replicates) R1 [2, 13]: 102.0%; % inhibition male (individual replicates) R3 [2, 14]: 99.5%; % inhibition male (individual replicates) R4 [2, 15]: 102.4% |
